From patent US9028858B2 (Coloplast A/S, priority 2003, dated 2015)
Like-named read-outs stand apart in the source and are kept apart here.

How the values were obtained:
[1] = Appearance index of catheter and swelling medium after sterilization; type: physicochemical; details: 0=totally unacceptable, 5=perfect
Description: The appearance index was a weighted average of the subjective acceptability after sterilization of catheters packed in one single compartment with catheter and swelling medium (on a scale from 0 to 5: 0=totally unacceptable, e.g. by strong color or major precipitation; 5=perfect, e.g. no coloration, no precipitate) of the hydrophilic catheter (weighted 60%) and the swelling medium (weighted 40%).

[2] = test system: seven bacteria; test: Antibacterial effect / antibacterial index of silver compounds; type: cell-based; details: for Antibacterial index: index between 0 and 5.05; for antibacterial effect: pH 5.5, 7 and 8.5, 160 mM NaCl, 6% PEG 2000, excess undissolved salt (precipitate) present
Protocol: The solutions further contained 160 mM NaCl and 6% PEG 2000, and all solutions were sterilized with 50 kGy β- or γ-irradiation. β-Irradiation generally gave a better antibacterial effect and a smaller degree of coloration of the products than γ-irradiation, so β-irradiation was the preferred sterilization method. The silver compounds only worked when excess undissolved salt was allowed in the packaging, that is, they had no antibacterial effect when they were decanted from their precipitate.
The antibacterial effect of each compound was scored on a scale from 0 (no effect) to 3 (excellent effect) for each of the seven bacteria. The antibacterial index was defined as 5/12 multiplied by the sum of the square roots of the scores of each of the seven bacteria. Thus, the antibacterial index was a rational number between 0 and 5.05.

[3] = type: physicochemical
Protocol: When the results were analyzed and further tests were carried out to confirm the results, it appeared that the effects might be third-order interactions or higher. That is, the effects came from mixtures of 3, 5, 7 or any other odd number of compounds but apparently not from main effects or 2-factor interactions. Thus, a large synergistic action between the compounds appeared to be present.

[4] = for Degradation rate of 1% H2O2: Rate constant (k) (%/day) / Degradation rate of 1% H2O2: log k (%/day): 500 µg/mL DETAPMP, 10 mM citrate, 0.7% NaCl, pH 4
Description: The pH-value of the solution was adjusted to pH 4 with 4 M NaOH and 1 M HCl.
Seven swelling media were produced.
The irradiation dose was 2*26 kGy.
The stick-pack with “peel” was a laminated material consisting of PETP (12 μm), aluminium (9 μm) and polyethylene peel (polyethylene+10% polybutylene) (70 μm). The stick-packs were made out of a stamped area of 13×35 mm that was welded in the longitudinal direction by 1×3 units on a welder. It was welded by 2×2.2 units across in one end of the stick-pack, and in the other end by 4.0 bar, 130° C. and 3.5 s (breakable seal).

[5] = Various stabilizers: degradation of H2O2 at pH 4, 5.5 and 7; details: with stabilizer, 25 mM citric acid, approx. 1% H2O2
Protocol: Therefore the investigation of the influence of the pH-value on the stability in our system was included in the study.
24 different kinds of swelling media containing different stabilizers (one without stabilizer) and 3 different pH-values (pH 4, 5.5 and 7) were prepared. […] The concentration of sodium chloride in each of these three swelling media was 0.7% (w/w). Sodium chloride was tested because it could be used as an osmolality increasing agent. […] Two different kinds of material for the stick-pack were used, one with “peel” and one with “non-peel”. […] The irradiation dose was 2*26 kGy.
The stick-pack with “peel” was a laminated material consisting of PETP (12 μm), aluminium (9 μm) and polyethylene peel (polyethylene+10% polybutylene) (70 μm). […] The stick-packs were made out of a stamped area of 13×35 mm that was welded in the longitudinal direction by 1×3 units on a welder. It was welded by 2×2.2 units across in one end of the stick-pack, and in the other end by 4.0 bar, 130° C. and 3.5 s (breakable seal).
The stick-packs were stored for stability testing at 23° C. and 40° C. Samples were taken out after irradiation and after 2 and 4 weeks at 40° C. and 8 and 16 weeks at 23° C.

[6] = test system: Enterococcus faecalis; test: Coated catheter on inoculated agar plate, inhibition zone; type: cell-based; details: 1-5 g/L in 50 mM citrate (pH 5.5), 160 mM NaCl and 6% PEG 2000
Protocol: (§1) A series of antibacterial agents (See Table 12.1) were swelled into a hydrophilic coating on urinary catheters. The catheters were stored about 0, 3, 6 and 12 weeks at 25° C., 40° C., and 60° C. Agar plates were inoculated with various bacterial strains clinically isolated from infected human urine, and added the coated catheter on top of the surface of the agar. The agar plates were incubated for 18 hours at 37° C., and visually tested for presence or absence of an inhibition zone.
(§2) Catheter sections with a hydrophilic coating were swelled with a solution of the anti-microbial agents and were placed on agar plates inoculated with bacteria (clinical isolates, − and + denotes […], respectively): Proteus mirabilis (−), Pseudomonas aeruginosa (−), E. coli (−), Providencia Stuartii (−), Staphylococcus aureus (+), Enterococcus faecalis (+) and Klebsielia (−).
(§3) A highly fractionated factorial design (2^15-10IV-design) was constructed by Design Expert software (version 6.0.6) and used to screen 32 of the 2^15=32768 possible combinations, where each compound was either absent or present in a relevant concentration. […] All samples were β-sterilized with a dose of 50 kGy. The constituents and concentrations of the 32 solutions are described in Table 12.1:
(§4) Many of the 32 mixtures had powerful action against several of the 7 bacteria (0=no effect; 3=excellent effect), see Table 12.2 (sorted by decreasing antibacterial effect).

[7] = test system: Klebsiella; test: as above; type: cell-based; details: 1-5 g/L in 50 mM citrate (pH 5.5), 160 mM NaCl and 6% PEG 2000
Protocol: as §1, §2, §3, §4

[8] = test system: Pseudomonas aeruginosa; test: as above; type: cell-based; details: 1-5 g/L in 50 mM citrate (pH 5.5), 160 mM NaCl and 6% PEG 2000
Protocol: as §1, §2, §3, §4

[9] = test system: Staphylococcus aureus; test: as above; type: cell-based; details: 1-5 g/L in 50 mM citrate (pH 5.5), 160 mM NaCl and 6% PEG 2000
Protocol: as §1, §2, §3, §4

[10] = test system: Proteus mirabilis; test: as above; type: cell-based; details: 1-5 g/L in 50 mM citrate (pH 5.5), 160 mM NaCl and 6% PEG 2000
Protocol: as §1, §2, §3, §4

[11] = test system: E. coli; test: as above; type: cell-based; details: 1-5 g/L in 50 mM citrate (pH 5.5), 160 mM NaCl and 6% PEG 2000
Protocol: as §1, §2, §3, §4

[12] = test system: Providencia Stuartii; test: as above; type: cell-based; details: 1-5 g/L in 50 mM citrate (pH 5.5), 160 mM NaCl and 6% PEG 2000
Protocol: as §1, §2, §3, §4

## CC1(C)NC(=O)[N-]C1=O.[Ag+] [5,5-DMH, silver 5,5-dimethylhydantoinate]
[1]; pH 5.5, 0.01% H2O2 added
  Appearance index: 5
[1]; pH 5.5, no H2O2 added
  Appearance index: 2.8
[1]; pH 7, no H2O2 added
  Appearance index: 3.4
[1]; pH 8.5, no H2O2 added
  Appearance index: 2.2
[2]; pH 5.5, 0.01% H2O2 added
  Antibacterial index: 1.4
[2]
  antibacterial effect: moderate to excellent
[2]; pH 5.5, no H2O2 added
  Antibacterial index: 1.8
[2]; pH 7, no H2O2 added
  Antibacterial index: 3.4
[2]; pH 8.5, no H2O2 added
  Antibacterial index: 1.7

## [H]/N=C(\N/C(=N/[H])NCCCCCCNC(=N)NC(=N)Nc1ccc(Cl)cc1)Nc1ccc(Cl)cc1 [Chlorhexidine, chlorhexidine digluconate]
[3]
  solubility: sparingly soluble

## O=P(O)(O)CN(CCN(CP(=O)(O)O)CP(=O)(O)O)CCN(CP(=O)(O)O)CP(=O)(O)O [DETAPMP, Diethylenetriaminepenta(methylenephosphonic)acid]
[4]; 50 mg/L DETAPMP, 0 days
  Concentration of H2O2 (%) after storage at 40° C.: 0.92%
[4]; 50 mg/L DETAPMP, 14 days
  Concentration of H2O2 (%) after storage at 40° C.: 0.89%
[4]; 50 mg/L DETAPMP, 25 days
  Concentration of H2O2 (%) after storage at 40° C.: 0.89%
[4]; 100 mg/L DETAPMP, 0 days
  Concentration of H2O2 (%) after storage at 40° C.: 0.91%
[4]; 100 mg/L DETAPMP, 14 days
  Concentration of H2O2 (%) after storage at 40° C.: 0.89%
[4]; 100 mg/L DETAPMP, 25 days
  Concentration of H2O2 (%) after storage at 40° C.: 0.88%
[4]; 150 mg/L DETAPMP, 0 days
  Concentration of H2O2 (%) after storage at 40° C.: 0.91%
[4]; 150 mg/L DETAPMP, 14 days
  Concentration of H2O2 (%) after storage at 40° C.: 0.90%
[4]; 150 mg/L DETAPMP, 25 days
  Concentration of H2O2 (%) after storage at 40° C.: 0.89%
[4]; 200 mg/L DETAPMP, 0 days
  Concentration of H2O2 (%) after storage at 40° C.: 0.91%
[4]; 200 mg/L DETAPMP, 14 days
  Concentration of H2O2 (%) after storage at 40° C.: 0.89%
[4]; 200 mg/L DETAPMP, 25 days
  Concentration of H2O2 (%) after storage at 40° C.: 0.89%
[4]; 250 mg/L DETAPMP, 0 days
  Concentration of H2O2 (%) after storage at 40° C.: 0.90%
[4]; 250 mg/L DETAPMP, 14 days
  Concentration of H2O2 (%) after storage at 40° C.: 0.89%
[4]; 250 mg/L DETAPMP, 25 days
  Concentration of H2O2 (%) after storage at 40° C.: 0.89%
[4]; 350 mg/L DETAPMP, 0 days
  Concentration of H2O2 (%) after storage at 40° C.: 0.91%
[4]; 350 mg/L DETAPMP, 14 days
  Concentration of H2O2 (%) after storage at 40° C.: 0.89%
[4]; 350 mg/L DETAPMP, 25 days
  Concentration of H2O2 (%) after storage at 40° C.: 0.89%
[4]; 500 mg/L DETAPMP, 0 days
  Concentration of H2O2 (%) after storage at 40° C.: 0.91%
[4]; 500 mg/L DETAPMP, 14 days
  Concentration of H2O2 (%) after storage at 40° C.: 0.89%
[4]; 500 mg/L DETAPMP, 25 days
  Concentration of H2O2 (%) after storage at 40° C.: 0.89%
[4]; 40° C.
  Degradation rate of 1% H2O2: Rate constant (k) (%/day): 0.0932 %/day
  Degradation rate of 1% H2O2: log k (%/day): −1.031 %/day
[4]; 50° C.
  Degradation rate of 1% H2O2: Rate constant (k) (%/day): 0.1722 %/day
  Degradation rate of 1% H2O2: log k (%/day): −0.764 %/day
[4]; 60° C.
  Degradation rate of 1% H2O2: Rate constant (k) (%/day): 0.3691 %/day
  Degradation rate of 1% H2O2: log k (%/day): −0.433 %/day
[4]; Arrhenius plot 40-60° C., DETAPMP at pH 4 and 10 mM citrate
  activation energy for the degradation of H2O2: 14.2 kcal/mol
[4]; DETAPMP at pH 4 and 10 mM citrate
  Q10 of H2O2 degradation rate: ≈ 2

## CC(O)(P(=O)(O)O)P(=O)(O)O [HEDP, 1-Hydroxyethane-1,1 diphosphonic acid]
[5]; pH 4
  calculated amount of degraded H2O2 after 2 years of storage at 23° C.: 65.4%
[5]; pH 5.5
  calculated amount of degraded H2O2 after 2 years of storage at 23° C.: 150.0%
[5]; pH 7
  calculated amount of degraded H2O2 after 2 years of storage at 23° C.: 351.1%

## O=C1CNC(=O)[N-]1.[Ag+] [Hydantoinate, silver hydantoinate]
[1]; pH 5.5, 0.01% H2O2 added
  Appearance index: 3.6
[1]; pH 5.5, no H2O2 added
  Appearance index: 4
[1]; pH 7, no H2O2 added
  Appearance index: 3.4
[1]; pH 8.5, no H2O2 added
  Appearance index: 2.8
[2]; pH 5.5, 0.01% H2O2 added
  Antibacterial index: 2.3
[2]
  antibacterial effect: moderate to excellent
[2]; pH 5.5, no H2O2 added
  Antibacterial index: 2.7
[2]; pH 7, no H2O2 added
  Antibacterial index: 3.3
[2]; pH 8.5, no H2O2 added
  Antibacterial index: 3.2

## [Cl][Ag] [silver chloride]
[3]
  solubility: sparingly soluble

## benzalkonium chloride
[6]
  antibacterial effect on E. faecalis: moderate to high
[7]
  antibacterial effect on Klebsiella: moderate to high
[8]
  antibacterial effect on P. aeruginosa: moderate to high
[9]
  antibacterial effect on S. aureus: moderate to high
[10]
  antibacterial effect on P. mirabilis: not
[11]
  antibacterial effect on E. coli: moderate to high
[12]
  antibacterial effect on P. stuartii: moderate to high

## polymeric silver imidazolate
[1]; pH 5.5, 0.01% H2O2 added
  Appearance index: 3
[1]; pH 5.5, no H2O2 added
  Appearance index: 3.4
[1]; pH 7, no H2O2 added
  Appearance index: 4.2
[1]; pH 8.5, no H2O2 added
  Appearance index: 3.2
[2]; pH 5.5, 0.01% H2O2 added
  Antibacterial index: 2.7
[2]
  antibacterial effect: moderate to excellent
[2]; pH 5.5, no H2O2 added
  Antibacterial index: 0.8
[2]; pH 7, no H2O2 added
  Antibacterial index: 3.2
[2]; pH 8.5, no H2O2 added
  Antibacterial index: 2.8
